{"source": "patent US7579448B2", "about": "“Purification of microbial cell fermentation homogenates” (Genentech, Inc., priority 2003, dated 2009)", "key": {"[1]": {"experiment": "Ethacridine lactate solubility at increasing NaCl concentrations", "assay_type": "physicochemical", "method": "The samples were incubated for three hours at room temperature before the concentration of soluble ethacridine lactate was determined. The open keys symbolize the 1.2% ethacridine lactate solution and the closed keys the 0.6% solution. The solid line is the 0.6% ethacridine lactate solution at pH 6.0, the broken line is the 1.2% ethacridine lactate solution at pH 6, the dotted line is the 0.6% ethacridine lactate solution at pH 9, and the broken line with dots is the 1.2% ethacridine lactate solution at pH 9.\nTwo ethacridine lactate solutions, i.e., 0.6 and 1.2%, were studied. Each solution was divided into two aliquots and pH adjusted to 6.0 and 9.0, respectively. To obtain a slight buffer capacity in the system, the ethacridine lactate was dissolved in 10 mM Tris-HCl buffer. Each ethacridine lactate solution was exposed to increasing amounts of NaCl, i.e., 0, 50, 100, 150, 200, 300, and 600 mM. The samples were incubated for 3 hours, then centrifuged for 20 minutes at 12000 g in a microfuge (SORVALL MC12V™, DuPont, Wilmington, Del., USA). The supernatants were assayed for ethacridine lactate by measuring the absorption at 270 nm. The spectrophotometer used was a HP8453 UV-VIS™ from Hewlett Packard (Wilmington, Del.), now Aligent Technologies (Palo Alto, Calif.) and known as the AGILENT 8453 UV-VIS™ spectrophotometer. A standard curve was derived from a solution with known ethacridine lactate concentration."}, "[2]": {"experiment": "Conductivity study: NaCl added to anti-CD18 homogenate with 0.6% ethacridine lactate", "assay_type": "physicochemical", "conditions": "100 mM NaCl, anti-CD18 homogenate diluted 4-fold", "method": "Various concentrations of NaCl were added to anti-CD18 homogenate to evaluate the effect of conductivity on protein precipitation. The NaCl concentrations studied were 0, 50, 100, 150, 200, and 400 mM. A reference series without ethacridine lactate was also performed to determine if any protein was precipitated due to the high salt concentration. The pH in this salt spike study was 8.5 and the anti-CD18 homogenate was diluted 4-fold. The ethacridine lactate concentration in the samples was 0.6% and 0% for the reference experiments."}}, "data": [{"smiles": "CC(O)C(=O)O.CCOc1ccc2nc3cc(N)ccc3c(N)c2c1", "note": "[ethacridine lactate, 6,9-diamino-2-ethoxyacridine lactate]", "values": [{"measurement": "solubility of ethacridine lactate", "setting": "[1]; pH 6, 0.6 and 1.2% solutions, 50 mM NaCl, 3 hours at room temperature", "result": "soluble"}, {"measurement": "solubility of ethacridine lactate", "setting": "[1]; pH 6, 0.6 and 1.2% solutions, 100 mM NaCl, 3 hours at room temperature", "result": "nearly fully precipitated"}, {"measurement": "solubility of ethacridine lactate", "setting": "[1]; pH 9, 0.6% solution compared with 1.2% solution, increasing NaCl", "result": "precipitated at lower salt concentration than the more concentrated ethacridine lactate solution"}, {"measurement": "precipitation of ethacridine lactate in the extraction system", "setting": "[2]", "result": "precipitation of ethacridine lactate was observed"}]}]}
